One series concerns Smn protein. The experiment in a line: Smn protein assay in cultured cells (SMN HTRF). It is filed as cell-based, human. To be noted: 48 hours; for EC1.5x (concentration giving 1.5-fold Smn protein increase): SMA Type 1 patient fibroblast cells (GM03813), 7-point concentration curve, SMN HTRF, concentration producing 1.5 times Smn protein vs DMSO vehicle control, read-out: EC1.5x for Smn protein expression; for maximum fold (Fold) increase of Smn protein: SMA patient fibroblast cells, 7-point concentration data, fold increase relative to vehicle control (SMN HTRF). The method, boiled down:
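Smn in SMA fibroblast lysates, measured by anti-SMN HTRF after 48 h compound exposure; EC1.5x from fold change over vehicle.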

In series [1] the test system is SMN2 minigene (full length SMN2 minigene mRNA containing SMN2 exon 7). The experiment in a line: SMN2 minigene mRNA splicing RT-qPCR assay in cultured cells. It is filed as cell-based, human. To be noted: Homo sapiens, HEK293-H; HEK293H cells stably transfected with SMN2-A minigene; 24 hours; 7-point concentration curve; 1.5-fold relative to vehicle-treated cells; read-out: EC1.5x for production of full length SMN2 mRNA. The method, boiled down:
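Full-length SMN2 minigene mRNA (exon 7 included), minigene-specific and not endogenous SMN, quantified by RT-qPCR multiplexed with GAPDH in stably transfected HEK293H cells after 24 h compound exposure at 37° C. Abundance from efficiency-corrected Ct, normalized to GAPDH and vehicle; EC1.5x reported as star bins.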

In general, melting point refers to the temperature of the solid-liquid transition. For the compound `Cc1cn2cc(-c3cc4ccc(C5CCN(C)CC5)cc4oc3=O)cnc2n1` [Compound 835, 3-(2-methylimidazo[1,2-a]pyrimidin-6-yl)-7-(1-methylpiperidin-4-yl)-2H-chromen-2-one], the melting point was in the range of 300 to 302 °C. In addition, in the series on Smn protein, the EC1.5x (concentration giving 1.5-fold Smn protein increase) was 300 to 1000 nM and the “maximum fold (Fold) increase of Smn protein” value (from here on “maximum fold (Fold) increase”) is “***** (fold increase >1.65)”. In series [1], the EC (1.5-fold) is 0.3 to 1 µM.
Compound `CN1CCCN(c2ccc3cc(-c4cn5cccc(C(F)(F)F)c5n4)c(=O)oc3c2)CC1` [Compound 293, 7-(4-methyl-1,4-diazepan-1-yl)-3-[8-(trifluoromethyl)imidazo[1,2-a]pyridin-2-yl]-2H-chromen-2-one] displayed a melting point of 196 to 199 °C. Also, the “maximum fold (Fold) increase” value in the series on Smn protein was “* (maximum fold increase of ≤1.2)”. Besides, the EC (1.5-fold) in series [1] was in the range of 0.3 to 1 µM.
As to `Cc1cn2cc(-c3cc4ccc(C5CCN(C)CC5)cc4oc3=O)nc2cn1` [Compound 841, 3-(6-methylimidazo[1,2-a]pyrazin-2-yl)-7-(1-methylpiperidin-4-yl)-2H-chromen-2-one], the melting point was in the range of 266 to 272 °C. For the same compound, in the series with Smn protein, the EC1.5x (concentration giving 1.5-fold Smn protein increase) was less than 300 nM and the “maximum fold (Fold) increase” value is “***** (fold increase >1.65)”. Besides, the EC (1.5-fold) in series [1] is less than 0.1 µM.
Regarding `Cc1cn2cc(-c3cc4ccc(N5C[C@@H]6[C@H](C5)[C@H]6N(C)C)cc4oc3=O)nc2c(C)n1` [Compound 761, 7-[(1R,5S,6s)-6-(dimethylamino)-3-azabicyclo[3.1.0]hex-3-yl]-3-(6,8-dimethylimidazo[1,2-a]pyrazin-2-yl)-2H-chromen-2-one], the melting point was in the range of 271 to 274 °C. For the same compound, in the series with Smn protein, the EC1.5x (concentration giving 1.5-fold Smn protein increase) is less than 300 nM; the “maximum fold (Fold) increase” value was “**** (fold increase between >1.5 and ≤1.65)”. In addition, the EC (1.5-fold) in series [1] is less than 0.1 µM.
In turn, `Cl.O=c1oc2cc(N3CCNCC3)ccc2cc1-c1nc2c(I)cccc2o1` [Compound 67, 3-(4-iodo-1,3-benzoxazol-2-yl)-7-(piperazin-1-yl)-2H-chromen-2-one hydrochloride] yielded a melting point of 280 to 285 °C. In addition, the “maximum fold (Fold) increase” value in the series with Smn protein is given as “* (maximum fold increase of ≤1.2)”. For the same compound, the EC (1.5-fold) in series [1] lay in the range of 0.3 to 1 µM.
For `Cc1ccc2nc(-c3cc4ccc(N5CCCNCC5)cc4oc3=O)cn2c1` [Compound 176, 7-(1,4-diazepan-1-yl)-3-(6-methylimidazo[1,2-a]pyridin-2-yl)-2H-chromen-2-one] the same measures were 218 to 220 °C, “* (maximum fold increase of ≤1.2)” and 1 to 3 µM.
Consider `Cc1nc(Cl)cn2cc(-c3cc4ccc(N5CCN(C)CC5)cc4oc3=O)nc12` [Compound 764, 3-(6-chloro-8-methylimidazo[1,2-a]pyrazin-2-yl)-7-(4-methylpiperazin-1-yl)-2H-chromen-2-one], for which the melting point was 217 to 220 °C. Besides, the “maximum fold (Fold) increase” value with Smn protein was “** (fold increase between >1.2 and ≤1.35)”. Further, the EC (1.5-fold) in series [1] was less than 0.1 µM.
In the case of `O=c1oc2cc(CN3CCC(O)CC3)ccc2cc1-c1cn2ccsc2n1` [Compound 346, 7-[(4-hydroxypiperidin-1-yl)methyl]-3-(imidazo[2,1-b][1,3]thiazol-6-yl)-2H-chromen-2-one], the melting point is 248 to 252 °C. In the series with Smn protein, the “maximum fold (Fold) increase” value is “** (fold increase between >1.2 and ≤1.35)”. Also, the EC (1.5-fold) in series [1] is 3 to 30 µM.
As for `Cc1cn2cc(-c3cc4ccc(N5C[C@H]6CCCN[C@H]6C5)cc4oc3=O)nc2cn1` [Compound 719, 3-(6-methylimidazo[1,2-a]pyrazin-2-yl)-7-[(4aR,7aR)-octahydro-6H-pyrrolo[3,4-b]pyridin-6-yl]-2H-chromen-2-one], the melting point lay within 282 to 291 °C. For the same compound, in the series with Smn protein, the “maximum fold (Fold) increase” value was “** (fold increase between >1.2 and ≤1.35)”. Further, the EC (1.5-fold) in series [1] was less than 0.1 µM.
`CCc1cc(C)cn2cc(-c3cc4ccc(N5CCN(C)CC5)cc4oc3=O)nc12` [Compound 340, 3-(8-ethyl-6-methylimidazo[1,2-a]pyridin-2-yl)-7-(4-methylpiperazin-1-yl)-2H-chromen-2-one]: the melting point was 203 to 210 °C. In addition, in the series with Smn protein, the “maximum fold (Fold) increase” value is recorded as “* (maximum fold increase of ≤1.2)”. The EC (1.5-fold) in series [1] lay in the range of 0.3 to 1 µM.
`Cc1cn2cc(-c3cc4ccc(N5CC(CN(C)C)C5)cc4oc3=O)nc2c(C)n1` [Compound 966, 7-{3-[(dimethylamino)methyl]azetidin-1-yl}-3-(6,8-dimethylimidazo[1,2-a]pyrazin-2-yl)-2H-chromen-2-one] gave a melting point of 150 to 152 °C. Moreover, in the series with Smn protein, the EC1.5x (concentration giving 1.5-fold Smn protein increase) is less than 300 nM; the “maximum fold (Fold) increase” value is “**** (fold increase between >1.5 and ≤1.65)”. Further, the EC (1.5-fold) in series [1] was less than 0.1 µM.
The compound `Cc1nc(Cl)cn2cc(-c3cc4ccc(N5CCN(C)[C@@H](C)C5)cc4oc3=O)nc12` [Compound 727, 3-(6-chloro-8-methylimidazo[1,2-a]pyrazin-2-yl)-7-[(3S)-3,4-dimethylpiperazin-1-yl]-2H-chromen-2-one] yielded a melting point of 251 to 253 °C. Besides, in the series on Smn protein, the EC1.5x (concentration giving 1.5-fold Smn protein increase) was 1000 to 3000 nM; the “maximum fold (Fold) increase” value is “*** (fold increase between >1.35 and ≤1.5)”. For the same compound, the EC (1.5-fold) in series [1] was in the range of 0.1 to 0.3 µM.
Compound `Cc1csc(-c2cc3ccc(N4CCNC(C)(C)C4)cc3oc2=O)n1` [Compound 301, 7-(3,3-dimethylpiperazin-1-yl)-3-(4-methyl-1,3-thiazol-2-yl)-2H-chromen-2-one] displayed a melting point of 204 to 209 °C. Also, the “maximum fold (Fold) increase” value in the series on Smn protein was “* (maximum fold increase of ≤1.2)”. Also, the EC (1.5-fold) in series [1] is 1 to 3 µM.
For the compound `C[C@@H]1CN(c2ccc3cc(-c4cn5cc(Cl)ccc5n4)c(=O)oc3c2)C[C@H](C)N1` [Compound 105, 3-(6-chloroimidazo[1,2-a]pyridin-2-yl)-7-[(3R,5S)-3,5-dimethylpiperazin-1-yl]-2H-chromen-2-one], the melting point is 220 to 225 °C. Also, in the series on Smn protein, the EC1.5x (concentration giving 1.5-fold Smn protein increase) was in the range of 300 to 1000 nM; the “maximum fold (Fold) increase” value was “**** (fold increase between >1.5 and ≤1.65)”. Besides, in series [1], the EC (1.5-fold) is 1 to 3 µM.
For `Cc1ccc2nc(-c3cc4ccc(N5CCCNCC5)cc4oc3=O)cn2n1` [Compound 631, 7-(1,4-diazepan-1-yl)-3-(6-methylimidazo[1,2-b]pyridazin-2-yl)-2H-chromen-2-one], the melting point fell in the range of 252 to 255 °C. For the same compound, in the series with Smn protein, the “maximum fold (Fold) increase” value is given as “* (maximum fold increase of ≤1.2)”. Also, the EC (1.5-fold) in series [1] lay in the range of 0.3 to 1 µM.
For `Cc1cc(F)cn2cc(-c3cc4ccc(N5CCNCC5)cc4oc3=O)nc12` [Compound 328, 3-(6-fluoro-8-methylimidazo[1,2-a]pyridin-2-yl)-7-(piperazin-1-yl)-2H-chromen-2-one] the same measures were 223 to 230 °C, “* (maximum fold increase of ≤1.2)” and 0.3 to 1 µM.
`CN(CCO)Cc1ccc2cc(-c3nc4ccccc4s3)c(=O)oc2c1` [Compound 79, 3-(1,3-benzothiazol-2-yl)-7-{[(2-hydroxyethyl)(methyl)amino]methyl}-2H-chromen-2-one] came in with a melting point of 182 to 184 °C. Moreover, the “maximum fold (Fold) increase” value in the series on Smn protein was “*** (fold increase between >1.35 and ≤1.5)”. Further, the EC (1.5-fold) in series [1] was in the range of 1 to 3 µM.
For `C[C@H]1CN(c2cc(F)c3cc(-c4cn5cccc(Cl)c5n4)c(=O)oc3c2)CCN1` [Compound 393, 3-(8-chloroimidazo[1,2-a]pyridin-2-yl)-5-fluoro-7-[(3S)-3-methylpiperazin-1-yl]-2H-chromen-2-one], the melting point is 268 to 278 °C. The “maximum fold (Fold) increase” value in the series on Smn protein is “*** (fold increase between >1.35 and ≤1.5)”. Further, the EC (1.5-fold) in series [1] lay in the range of 0.3 to 1 µM.
Compound `CCc1cn2cc(-c3cc4ccc(N5C[C@@H](C)N[C@@H](C)C5)cc4oc3=O)nc2s1` [Cpd 429, 7-[(3R,5S)-3,5-dimethylpiperazin-1-yl]-3-(2-ethylimidazo[2,1-b][1,3]thiazol-6-yl)-2H-chromen-2-one] came in with a melting point of 251 to 253 °C. In addition, the “maximum fold (Fold) increase” value with Smn protein is “* (maximum fold increase of ≤1.2)”. The EC (1.5-fold) in series [1] lay in the range of 0.3 to 1 µM.
Regarding `Cc1cn2cc(-c3cc4ccc(CCCNCc5ccsc5)cc4oc3=O)nc2c(C)n1` [Compound 934, 3-(6,8-dimethylimidazo[1,2-a]pyrazin-2-yl)-7-{3-[(thiophen-3-ylmethyl)amino]propyl}-2H-chromen-2-one], the melting point lay in the range of 149 to 152 °C. In addition, the “maximum fold (Fold) increase” value in the series with Smn protein was “** (fold increase between >1.2 and ≤1.35)”. Besides, the EC (1.5-fold) in series [1] is less than 0.1 µM.
As for `CN1CCN(c2ccc3cc(-c4cn5cccc(F)c5n4)c(=O)oc3c2)CC1` [Compound 150, 3-(8-fluoroimidazo[1,2-a]pyridin-2-yl)-7-(4-methylpiperazin-1-yl)-2H-chromen-2-one], the melting point lay in the range of 278 to 280 °C. Moreover, in the series on Smn protein, the EC1.5x (concentration giving 1.5-fold Smn protein increase) fell in the range of 3000 to 10000 nM; the “maximum fold (Fold) increase” value is “*** (fold increase between >1.35 and ≤1.5)”. In series [1], the EC (1.5-fold) is 0.3 to 1 µM.
